Test results reported in the Deep4Chem optical property database.
One block for each compound: values may come before it.

Experiment: photoluminescence quantum yield (fraction); solvent given as SMILES

Structure (SMILES): c1ccc2cc(-c3c4ccccc4c(-c4ccc(-c5ccc(-n6c7ccccc7c7ccccc76)cc5)cc4)c4ccccc34)ccc2c1
photoluminescence quantum yield (in ClCCl): 0.7

Structure (SMILES): CCOC(=O)c1cc(C(=O)OCC)c2cc(N(CC)CC)ccc2n1
photoluminescence quantum yield (in CCO): 0.49

Structure (SMILES): CCCCN(CCCC)c1ccc2c#cc3cc4c#cc5ccc(C(F)(F)F)cc5c#cc#cc5cc(N(CCCC)CCCC)ccc5c#cc4cc3c#cc3ccc(C(F)(F)F)cc3c#cc#cc2c1
photoluminescence quantum yield (in ClCCl): 0.33

Structure (SMILES): CC1(C)C(/C=C/C2=C(Oc3ccc(CCN=C=S)cc3Br)C(=C/C=C3/N(CCCS(=O)(=O)[O-])c4ccccc4C3(C)C)/CCC2)=[N+](CCCS(=O)(=O)[O-])c2ccccc21
photoluminescence quantum yield (in CO): 0.14

Structure (SMILES): N#Cc1cc(-c2ccc(/C=C/c3ccc(N(c4ccccc4)c4ccccc4)cc3)c(C#N)c2)ccc1/C=C/c1ccc(N(c2ccccc2)c2ccccc2)cc1
photoluminescence quantum yield (in ClCCl): 0.37

Structure (SMILES): Cc1ccc(-c2c3ccc([nH]3)c3nc(c(-c4ccc([N+](=O)[O-])cc4)c4ccc([nH]4)c4ccc([nH]4)c(-c4ccc(C)cc4)c4ccc2o4)C=C3)cc1
photoluminescence quantum yield (in C1CCOC1): 0.018
photoluminescence quantum yield (in Cc1ccccc1): 0.083
photoluminescence quantum yield (in c1ccccc1): 0.098

Structure (SMILES): O=S1(=O)c2ccccc2C2(c3cc(-c4ccc(N(c5ccccc5)c5ccccc5)cc4)ccc3-c3ccc(-c4ccc(N(c5ccccc5)c5ccccc5)cc4)cc32)c2ccccc21
photoluminescence quantum yield (in ClCCl): 0.83
photoluminescence quantum yield (in c1cc(-n2c3ccccc3c3ccccc32)cc(-n2c3ccccc3c3ccccc32)c1): 0.9

Structure (SMILES): CC(O)CC1=N/C(=C\c2cccc(N(C)C)c2)C(=O)N1C (stereo unspecified)
photoluminescence quantum yield (in C1CCOC1): 0.11
photoluminescence quantum yield (in CC#N): 0.03
photoluminescence quantum yield (in CCCCCC): 0.37

Structure (SMILES): CCOC(=O)c1c2c3c(ccc(Br)c3c3cc4c(cc13)[Si](C)(C)O[Si]4(C)C)N(C)C2=O
photoluminescence quantum yield (in CC#N): 0.31

Structure (SMILES): CCCCOC(=O)c1cc(Cl)c2c3c(Cl)cc4c5c(cc(Cl)c(c6c(Oc7ccc(C(=O)OC)cc7)cc(C(=O)OCCCC)c1c26)c53)C(=O)N(c1c(C(C)C)cccc1C(C)C)C4=O
photoluminescence quantum yield (in Cc1ccccc1): 0.92

Structure (SMILES): CCC1=C(C)C2=Cc3c4ccccc4c4n3[B-](c3ccncc3)(Oc3ccccc3-4)[N+]2=C1C (stereo unspecified)
photoluminescence quantum yield (in CC#N): 0.73
photoluminescence quantum yield (in CCCCCC): 0.78
photoluminescence quantum yield (in Cc1ccccc1): 0.7
photoluminescence quantum yield (in ClCCl): 0.7

Structure (SMILES): CC1(C)C(/C=C/C2=C(Cl)C(=C/C=C3/N(Cc4ccc(C(=O)O)cc4)c4ccccc4C3(C)C)/CCC2)=[N+](Cc2ccc(C(=O)O)cc2)c2ccccc21
photoluminescence quantum yield (in CCO): 0.11

Structure (SMILES): CC(=O)O[B-]1(OC(C)=O)OC(/C=C/c2ccc(C)cc2)=CC(/C=C/c2ccc(C)cc2)=[O+]1
photoluminescence quantum yield (in C1CCOC1): 0.75
photoluminescence quantum yield (in CC#N): 0.55
photoluminescence quantum yield (in CC(C)=O): 0.58
photoluminescence quantum yield (in CS(C)=O): 0.51
photoluminescence quantum yield (in Cc1ccccc1): 0.88
photoluminescence quantum yield (in ClC(Cl)Cl): 0.63
photoluminescence quantum yield (in ClCCl): 0.56

Structure (SMILES): CCCCc1ccc(-n2c3c4ccc(C(F)(F)F)cc4nc(-c4ccc(C#N)cc4)c3c3c2c2c(-c4ccc(C#N)cc4)nc4cc(C(F)(F)F)ccc4c2n3-c2ccc(CCCC)cc2)cc1
photoluminescence quantum yield (in ClC(Cl)Cl): 0.14

Structure (SMILES): CCC1=C(C)C2=C(c3c4ccccc4c(-c4ccccc4)c4ccccc34)c3c(C)c(CC)c(C)n3[B-](F)(F)[N+]2=C1C
photoluminescence quantum yield (in CC#N): 0.422
photoluminescence quantum yield (in CCCCCC): 0.903
photoluminescence quantum yield (in CCO): 0.804
photoluminescence quantum yield (in CN(C)C=O): 0.648
photoluminescence quantum yield (in Cc1ccccc1): 0.858
photoluminescence quantum yield (in ClCCl): 0.833

Structure (SMILES): COc1cc(OC)cc(C2=C3C(C)=C(I)C(/C=C/c4c[nH]c5ccc([N+](=O)[O-])cc45)=[N+]3[B-](F)(F)n3c(/C=C/c4c[nH]c5ccc([N+](=O)[O-])cc45)c(I)c(C)c32)c1
photoluminescence quantum yield (in C1CCOC1): 0.03
photoluminescence quantum yield (in CS(C)=O): 0.02
photoluminescence quantum yield (in ClCCl): 0.02

Structure (SMILES): Cc1cccc(C2=CC3=C(c4c(C)cc(C)cc4C)c4cc(-c5cccc(C)c5)c(-c5cccc(C)c5)n4[B-](F)(F)[N+]3=C2c2cccc(C)c2)c1
photoluminescence quantum yield (in C1CCCCC1): 0.41
photoluminescence quantum yield (in C1CCOC1): 0.33
photoluminescence quantum yield (in CC#N): 0.24
photoluminescence quantum yield (in Cc1ccccc1): 0.44
photoluminescence quantum yield (in ClCCl): 0.3

Structure (SMILES): CC1=CC(C)=[N+]2C1=C(c1ccc(-c3ccc(O)cc3)s1)c1c(C)cc(C)n1[B-]2(F)F
photoluminescence quantum yield (in Cc1ccccc1): 0.069

Structure (SMILES): CN(C)c1ccc(C2=Nc3sc4cc(Cl)ccc4[n+]3[B-](F)(F)O2)cc1
photoluminescence quantum yield (in C1CCOC1): 0.74
photoluminescence quantum yield (in CC#N): 0.12
photoluminescence quantum yield (in CC(C)=O): 0.21
photoluminescence quantum yield (in Cc1ccccc1): 0.91
photoluminescence quantum yield (in ClCCl): 0.78

Structure (SMILES): CCOC(=O)/C(C#N)=C/c1cc2c3ccccc3n(C)c2cc1OC
photoluminescence quantum yield (in C1CCOC1): 0.001
photoluminescence quantum yield (in CC#N): 0.003
photoluminescence quantum yield (in CCOC(C)=O): 0.004
photoluminescence quantum yield (in CN(C)C=O): 0.005
photoluminescence quantum yield (in CO): 0.003
photoluminescence quantum yield (in CS(C)=O): 0.01
photoluminescence quantum yield (in Cc1ccccc1): 0.003
photoluminescence quantum yield (in ClC(Cl)Cl): 0.004
photoluminescence quantum yield (in ClCCl): 0.003

Structure (SMILES): O=C1NC(=O)c2c1c1c3ccccc3[nH]c1c1[nH]c3ccccc3c21
photoluminescence quantum yield (in C1CCOC1): 0.44
photoluminescence quantum yield (in CC#N): 0.33
photoluminescence quantum yield (in CC(C)OC(C)C): 0.25
photoluminescence quantum yield (in CCCCOCCCC): 0.28
photoluminescence quantum yield (in CCO): 0.26
photoluminescence quantum yield (in CCOC(C)=O): 0.29
photoluminescence quantum yield (in CN(C)C=O): 0.25
photoluminescence quantum yield (in ClCCl): 0.18

Structure (SMILES): c1ccc(-c2cc(-c3ccc(N4c5ccccc5C(c5ccccc5)(c5ccccc5)c5ccccc54)cc3)nc(-c3ccccc3)n2)cc1
photoluminescence quantum yield (in O=P(c1ccccc1)(c1ccccc1)c1ccccc1Oc1ccccc1P(=O)(c1ccccc1)c1ccccc1): 0.7

Structure (SMILES): CC(C)(C)c1ccc2c(c1)c1cc(C(C)(C)C)ccc1n2-c1cc(C(=O)c2ccccn2)cc(-n2c3ccc(C(C)(C)C)cc3c3cc(C(C)(C)C)ccc32)c1
photoluminescence quantum yield (in Cc1ccccc1): 0.072
photoluminescence quantum yield (in c1cc(-c2cccc(-n3c4ccccc4c4ccccc43)c2)cc(-n2c3ccccc3c3ccccc32)c1): 0.96

Structure (SMILES): Fc1cc(-c2ccc(-c3nc4cc(Br)ccc4[nH]3)cc2)ccc1-c1ccc(-c2nc3cc(Br)ccc3[nH]2)cc1
photoluminescence quantum yield (in CN(C)C=O): 0.48

Structure (SMILES): COc1c2ccccc2c(OC)c2c(C#CC(C)(C)C)c3cc4sccc4cc3c(C#CC(C)(C)C)c12
photoluminescence quantum yield (in C1CCOC1): 0.1
photoluminescence quantum yield (in Cc1ccccc1): 0.14
photoluminescence quantum yield (in ClCCl): 0.08

Structure (SMILES): O=C1Cc2ccc(cc2)CC(=O)Cc2ccc(c3nsnc23)C1
photoluminescence quantum yield (in C1CCCCC1): 0.85
photoluminescence quantum yield (in CC#N): 0.45
photoluminescence quantum yield (in ClC(Cl)Cl): 0.68

Structure (SMILES): CC(C)(C)c1ccc2c(c1)c1cc(C(C)(C)C)ccc1n2-c1ccc(C#Cc2ccc(C#Cc3ccc(-n4c5ccc(C(C)(C)C)cc5c5cc(C(C)(C)C)ccc54)cc3)cc2)cc1
photoluminescence quantum yield (in CC#N): 0.67
photoluminescence quantum yield (in CCCCC): 0.89
photoluminescence quantum yield (in CO): 0.41
photoluminescence quantum yield (in Cc1ccccc1): 0.86
photoluminescence quantum yield (in ClC(Cl)Cl): 0.69
photoluminescence quantum yield (in ClCCl): 0.89

Structure (SMILES): CCCCCCC1(CCCCCC)c2cc(-c3nc(-c4ccc5c(c4)C(CCCCCC)(CCCCCC)c4cc(-n6c7ccc(C(C)(C)C)cc7c7cc(C(C)(C)C)ccc76)ccc4-5)nc(-c4ccc5c(c4)C(CCCCCC)(CCCCCC)c4cc(-n6c7ccc(C(C)(C)C)cc7c7cc(C(C)(C)C)ccc76)ccc4-5)n3)ccc2-c2ccc(-n3c4ccc(C(C)(C)C)cc4c4cc(C(C)(C)C)ccc43)cc21
photoluminescence quantum yield (in C1CCOC1): 0.56
photoluminescence quantum yield (in CCCCCC): 1
photoluminescence quantum yield (in Cc1ccccc1): 0.99
photoluminescence quantum yield (in ClCCl): 0.56

Structure (SMILES): CC(=O)c1c(N[C@@H](CC(C)C)C(=O)O)c2ccc(N(C)C)cc2oc1=O
photoluminescence quantum yield (in ClCCl): 0.0027

Structure (SMILES): CN(C)c1ccc(/C=C/c2cc(/C=C/c3ccc(N(C)C)cc3)nc(/C=C/c3ccc(N(c4ccccc4)c4ccccc4)cc3)n2)cc1
photoluminescence quantum yield (in ClCCl): 0.59

Structure (SMILES): CC(C)(C)c1ccc(C2=c3sc(-c4ccc(C(C)(C)C)cc4)cc3=[N+]3C2=Nc2c(-c4ccc(C(C)(C)C)cc4)c4sc(-c5ccc(C(C)(C)C)cc5)cc4n2[B-]3(F)F)cc1
photoluminescence quantum yield (in ClC(Cl)Cl): 0.12

Continued, values first:

photoluminescence quantum yield (in ClCCl): 0.06
Structure (SMILES): [O-][n+]1c(/C=C/C=C/c2ccccc2)nc(N2CCOCC2)c2c1CCCC2

photoluminescence quantum yield (in C1CCOC1): 4e-05
Structure (SMILES): C1=Cc2ccccc2C(=Cc2ccc(C=C3c4ccccc4-c4ccccc43)cc2)c2ccccc21

photoluminescence quantum yield (in C1CCOC1): 0.78
photoluminescence quantum yield (in C1COCCO1): 0.73
photoluminescence quantum yield (in CC#N): 0.7
photoluminescence quantum yield (in CC(C)O): 0.55
photoluminescence quantum yield (in CCO): 0.47
photoluminescence quantum yield (in CCOC(C)=O): 0.76
photoluminescence quantum yield (in CN(C)C=O): 0.87
photoluminescence quantum yield (in CO): 0.38
photoluminescence quantum yield (in CS(C)=O): 0.88
photoluminescence quantum yield (in O): 0.54
Structure (SMILES): COc1ccc(C2CC(c3ccc(O)cc3)=NN2c2ccc(S(N)(=O)=O)cc2)cc1 (stereo unspecified)

photoluminescence quantum yield (in ClC(Cl)Cl): 0.32
Structure (SMILES): COc1ccc2c(c1)CCc1c(-c3ccccc3)c3n(c1-2)[B-](F)(F)[N+]1=C2C(=C(c4ccccc4)C1=N3)CCc1ccccc12

photoluminescence quantum yield (in ClCCl): 0.91
Structure (SMILES): COc1ccccc1C1=[N+]2C(=C(c3ccccc3)c3c4ccccc4c(-c4ccccc4OC)n3[B-]2(F)F)c2ccccc21

photoluminescence quantum yield (in ClCCl): 0.157
Structure (SMILES): CCCCCCCCCCCCN1C(=O)c2c(c3ccc4cc(-c5ccc(C=O)cc5)c(OC)cc4c3c3c2ccc2cc(-c4ccc(C=O)cc4)c(OC)cc23)C1=O

photoluminescence quantum yield (in ClCCl): 0.0006
Structure (SMILES): Cc1ccc(N(c2ccc(C)cc2)c2ccc(Oc3nnc(Cl)nn3)cc2)cc1

photoluminescence quantum yield (in ClCCl): 0.2
Structure (SMILES): CCCCCCc1cc2c(s1)-c1cc3c(cc1NB2c1ccccc1)-c1sc(CCCCCC)cc1B(c1ccccc1)N3

photoluminescence quantum yield (in ClC(Cl)Cl): 0.74
Structure (SMILES): CC(C)c1cccc(C(C)C)c1-n1c(=O)c2ccc3c4ccc5c(=O)n(-c6c(C(C)C)cccc6C(C)C)c(=O)c6cc7c(-c8ccccc8)nc8cc(c1=O)c2c3c8c7c4c56

photoluminescence quantum yield (in CO): 0.53
Structure (SMILES): c1ccc(N(c2ccccc2)c2ccc(-c3cncs3)cc2)cc1

photoluminescence quantum yield (in CCO): 0.4
Structure (SMILES): CCOC(=O)c1cc(C(=O)OCC)c2cc(N)ccc2n1

photoluminescence quantum yield (in ClC(Cl)Cl): 0.004
Structure (SMILES): COc1ccc(O[B-]2(Oc3ccc(OC)cc3)n3c(C)cc(C)c3C(c3ccc(I)cc3)=C3C(C)=CC(C)=[N+]32)cc1

photoluminescence quantum yield (in ClCCl): 0.04
Structure (SMILES): CN(C)c1ccc(/C=C/c2ccnc(/C=C/c3ccc(N(C)C)cc3)n2)cc1

photoluminescence quantum yield (in C1COCCO1): 0.4
photoluminescence quantum yield (in CC#N): 0.32
photoluminescence quantum yield (in CCCCOCCCC): 0.37
photoluminescence quantum yield (in CCOC(C)=O): 0.33
Structure (SMILES): COc1nc(Cl)nc(Nc2ccc3c4cccc5cccc(c6cccc2c63)c54)n1

photoluminescence quantum yield (in ClCCl): 0.19
Structure (SMILES): COc1ccc(-c2cnc(-c3ccccc3)o2)cc1OC

photoluminescence quantum yield (in O): 0.546
Structure (SMILES): C=CC1CN2CCC1CC2[C@H](O)c1ccnc2ccc(OC)cc12 (stereo partly specified)
